One data set can be described thus: physchem. Here is the method:
From a stock solution in vehicle, either H2O or 10 mM phosphate, containing 1 mg (as weighed) compound per ml, 8-11 aliquots are withdrawn and pH-adjusted individually with HCl/NaOH, to cover the whole pH range.

In the next data set the target is human MC4 receptor (Homo sapiens, UniProt P32245). As to the kind of experiment: biochemical. The method, then:
Assay (V)—Melanocortin Receptor 4 (MC4) Binding Assay
In Vitro ^125NDP-α-MSH Binding to Recombinant BHK Cells Expressing Human MC4 Receptor (Filtration Assay).
The assay was performed in 5 ml minisorb vials (Sarstedt No. 55.526) or in 96-well filter-plates (Millipore MADVN 6550), and using BHK cells expressing the human MC4 receptor using BHK cells stably expressing the human MC4 receptor. The membranes were prepared from frozen or fresh cells that were homogenized in 20 mM HEPES pH 7.1, 5 mM MgCl2 and 1 mg/ml bacitracin and centrifuged at 15000 rpm at 4° C., 10 min in a Sorvall RC 5B plus, SS-34 rotor. The supernatant was discarded, and the pellets were re-suspended in buffer, homogenized and centrifuged two more times. The final pellets were resuspended in the buffer mentioned above, and the protein concentration was measured and adjusted with buffer to 14 to 17 mg/ml and the membrane preparation were kept at −80° C. until assay. The assay was run directly on a dilution of this cell membrane suspension, without any further preparation. The BHK cell membranes are kept at −80° C. until assay, and the assay is run directly on a dilution of this cell membrane suspension, without further preparation. The suspension is diluted to give maximally 10% specific binding, i.e. to approx. 50-100 fold dilution. The assay was performed in a total volume of 200 μl: 50 μl of cell suspension, 50 μl of ^125NDP-α-MSH (≈79 pM in final concentration), 50 μl of test compound and 50 μl binding buffer (pH 7) mixed and incubated for 2 h at 25° C. [binding buffer: 25 mM HEPES, pH 7.0, 1 mM CaCl2, 1 mM MgSO4, 1 mM EGTA, 0.02% Bacitracin, 0.005% Tween™ 20 and 0.1% HSA or, alternatively, 0.1% ovalbumin (Sigma; catalogue No. A-5503)]. Test compounds were dissolved in DMSO and diluted in binding buffer. Radiolabelled ligand and membranes were diluted in binding buffer. The incubation was stopped by dilution with 2×100 μl ice-cold 0.9% NaCl. The radioactivity retained on the filters was counted using a Cobra II auto gamma counter.
The data were analysed by non-linear regression analysis of binding curves, using the Windows™ program GraphPad™ Prism (GraphPad Software, USA).

Where [1] appears, read: pH 6.4, Solubility Conc., pH 6.4, vehicle 10 mM phosphate.
The mark [2] stands for this setting: pH 6.7, Solubility Conc., pH 6.7, vehicle 10 mM phosphate.
[3] abbreviates: pH 7, Solubility Conc., pH 7.0, vehicle 10 mM phosphate.
Setting [4] is: pH 7.2, Solubility Conc., pH 7.2, vehicle 10 mM phosphate.
[5] abbreviates: pH 7.8, Solubility Conc., pH 7.8, vehicle 10 mM phosphate.

For orientation: solubility means the dissolved amount per volume that the medium holds. One may read the Ki as a measure of affinity in units of concentration, obtained from inhibition or displacement. Low values mean higher affinity, high ones lower affinity.

In brackets after ≈: the same amount, converted by molar mass. Positions of bridges follow the written chain, without caps; N, C: chain ends. Non-standard residues stand in square brackets, D forms with d. Residues, ends and D or L forms follow the SMILES beside them. Groups on a side chain read outwards from the residue. *: point of attachment. Palmitoyl(16-(5-tetrazolyl)) = O=C(CCCCCCCCCCCCCCCc1nnn[nH]1)*; Lys(CH2CO2H)2 = N[C@@H](CCCCN(CC(=O)O)CC(=O)O)C(=O)O; C18 diacid = O=C(O)CCCCCCCCCCCCCCCCC(=O)*; NTA = O=C(O)CN(CC(=O)O)CC(=O)*; Orn = NCCC[C@H](N)C(=O)O; Dap = NC[C@H](N)C(=O)O; AEEA = NCCOCCOCC(=O)O

Sequence of human MC4 receptor (P32245 whole entry): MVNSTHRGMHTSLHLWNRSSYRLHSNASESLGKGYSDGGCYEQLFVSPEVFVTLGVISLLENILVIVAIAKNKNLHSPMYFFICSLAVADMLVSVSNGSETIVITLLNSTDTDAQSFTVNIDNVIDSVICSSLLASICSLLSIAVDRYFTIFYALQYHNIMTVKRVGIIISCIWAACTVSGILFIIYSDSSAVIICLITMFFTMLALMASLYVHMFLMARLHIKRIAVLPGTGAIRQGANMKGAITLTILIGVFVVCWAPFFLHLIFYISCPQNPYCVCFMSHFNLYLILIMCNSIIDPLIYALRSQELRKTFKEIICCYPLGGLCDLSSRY

In the case of `CC(=O)N[C@H]1CCCNC(=O)C[C@@H](C(=O)N2CCC[C@H]2C(=O)N[C@@H](CO)C(=O)N[C@@H](CO)C(=O)N[C@@H](CO)C(=O)N[C@@H](CCCCN(CC(=O)O)CC(=O)O)C(=O)N[C@@H](CO)C(=O)N[C@@H](CO)C(=O)N[C@@H](CCCCNC(=O)COCCOCCNC(=O)CCCCCCCCCCCCCCCCC(=O)O)C(N)=O)NC(=O)[C@H](Cc2c[nH]c3ccccc23)NC(=O)[C@H](CCCNC(=N)N)NC(=O)[C@@H](Cc2ccccc2)NC(=O)[C@H](Cc2c[nH]cn2)NC1=O` [Example 14, Ac-c[Orn-His-D-Phe-Arg-Trp-Asp]-Pro-Ser-Ser-Ser-Lys(biscarboxymethyl)-Ser-Ser-Lys({2-[2-(17-carboxyheptadecanoylamino)ethoxy]ethoxy}acetyl)-NH2] (Ac-[Orn]H[dF]RWDPSSS[Lys(CH2CO2H)2]SSK([AEEA-C18 diacid])-NH2; lactam 1-6), the solubility in the data set “physchem” (setting [1]) turned out to be 61 µM (≈ 137 µg/mL); in the data set “physchem” (setting [2]), 148 µM (≈ 332 µg/mL); in the data set “physchem” (pH 6.9, Solubility Conc., pH 6.9, vehicle 10 mM phosphate) it was 403 µM (≈ 904 µg/mL); in “physchem” (setting [3]) it was 485 µM (≈ 1090 µg/mL); in the data set “physchem” (setting [4]), 507 µM (≈ 1140 µg/mL); in “physchem” (pH 7.3, Solubility Conc., pH 7.3, vehicle 10 mM phosphate), 535 µM (≈ 1200 µg/mL). In addition, the solubility in “physchem” (pH 7.4, Solubility Conc., pH 7.4, vehicle 10 mM phosphate) worked out at 513 µM (≈ 1150 µg/mL); in “physchem” (setting [5]) it was 506 µM (≈ 1140 µg/mL); in the data set “physchem” (pH 8, Solubility Conc., pH 8.0, vehicle 10 mM phosphate) it was 517 µM (≈ 1160 µg/mL). Further, affinity at human MC4 receptor was put at a Ki of 0.8 nM.
On to `CC(=O)N[C@H]1CC(=O)NC[C@@H](C(=O)N2CCC[C@H]2C(=O)N2CCC[C@H]2C(=O)N[C@@H](CCCNC(=N)N)C(=O)N[C@@H](CC(=O)O)C(=O)N[C@@H](CCCCNC(=O)CN(CC(=O)O)CC(=O)O)C(=O)N[C@@H](CCCCNC(=O)COCCOCCNC(=O)CCCCCCCCCCCCCCCc2nnn[nH]2)C(N)=O)NC(=O)[C@H](Cc2c[nH]c3ccccc23)NC(=O)[C@H](CCCNC(=N)N)NC(=O)[C@@H](Cc2ccccc2)NC(=O)[C@H](Cc2c[nH]cn2)NC1=O` [Example 24, Ac-c[Asp-His-D-Phe-Arg-Trp-Dap]-Pro-Pro-Arg-Asp-Lys(BCMA)-Lys[(2-{2-[16-(tetrazol-5-yl)hexadecanoylamino]ethoxy}ethoxy)acetyl]-NH2] (Ac-DH[dF]RW[Dap]PPRDK(NTA)K([AEEA-Palmitoyl(16-(5-tetrazolyl))])-NH2; lactam 1-6), for which the Ki at human MC4 receptor came to 107 nM.
As to `CC(=O)N[C@H]1CCCNC(=O)C[C@@H](C(=O)N2CCC[C@H]2C(=O)N[C@@H](CO)C(=O)N[C@@H](CO)C(=O)N[C@@H](CO)C(=O)N[C@@H](CCCCN(CC(=O)O)CC(=O)O)C(=O)N[C@@H](CO)C(=O)N[C@@H](CO)C(=O)N[C@@H](CCCCNC(=O)COCCOCCNC(=O)CCCCCCCCCCCCCCCc2nnn[nH]2)C(N)=O)NC(=O)[C@H](Cc2c[nH]c3ccccc23)NC(=O)[C@H](CCCNC(=N)N)NC(=O)[C@@H](Cc2ccccc2)NC(=O)[C@H](Cc2c[nH]cn2)NC1=O` [Example 28, Ac-c[Orn-His-D-Phe-Arg-Trp-Asp]-Pro-Ser-Ser-Ser-Lys(biscarboxymethyl)-Ser-Ser-Lys[(2-{2-[16-(tetrazol-5-yl)hexadecanoylamino]ethoxy}ethoxy)acetyl]-NH2] (Ac-[Orn]H[dF]RWDPSSS[Lys(CH2CO2H)2]SSK([AEEA-Palmitoyl(16-(5-tetrazolyl))])-NH2; lactam 1-6), the solubility in “physchem” (pH 4.8, Solubility Conc., pH 4.8, vehicle 10 mM phosphate) is 71 µM (≈ 160 µg/mL); in the data set “physchem” (pH 5.6, Solubility Conc., pH 5.6, vehicle 10 mM phosphate) it was 40 µM (≈ 90.1 µg/mL); in “physchem” (setting [1]), 59 µM (≈ 133 µg/mL); in “physchem” (setting [2]), 126 µM (≈ 284 µg/mL); in “physchem” (setting [3]), 382 µM (≈ 861 µg/mL); in the data set “physchem” (setting [4]), 406 µM (≈ 915 µg/mL). The solubility in the data set “physchem” (pH 7.5, Solubility Conc., pH 7.5, vehicle 10 mM phosphate) stood at 410 µM (≈ 924 µg/mL); in “physchem” (setting [5]) it was 433 µM (≈ 976 µg/mL); in the data set “physchem” (pH 8.1, Solubility Conc., pH 8.1, vehicle 10 mM phosphate), 415 µM (≈ 935 µg/mL). The compound also showed a Ki on human MC4 receptor of 0.9 nM.
As to `CC(=O)N[C@H]1CCCNC(=O)C[C@@H](C(=O)N2CCC[C@H]2C(=O)N2CCC[C@H]2C(=O)N[C@@H](CCCNC(=N)N)C(=O)N[C@@H](CCC(=O)O)C(=O)N[C@@H](CCCCN(CC(=O)O)CC(=O)O)C(=O)N[C@@H](CCCCNC(=O)COCCOCCNC(=O)CCCCCCCCCCCCCCCCC(=O)O)C(N)=O)NC(=O)[C@H](Cc2c[nH]c3ccccc23)NC(=O)[C@H](CCCNC(=N)N)NC(=O)[C@@H](Cc2ccccc2)NC(=O)[C@H](Cc2c[nH]cn2)NC1=O` [Example 34, Ac-c[Orn-His-D-Phe-Arg-Trp-Asp]-Pro-Pro-Arg-Glu-Lys(biscarboxymethyl)-Lys({2-[2-(17-carboxyheptadecanoylamino)ethoxy]ethoxy}acetyl)-NH2] (Ac-[Orn]H[dF]RWDPPRE[Lys(CH2CO2H)2]K([AEEA-C18 diacid])-NH2; lactam 1-6), the solubility in the data set “physchem” (pH 5.5, Solubility Conc.) came to 27 µM (≈ 59.1 µg/mL); in “physchem” (pH 6.3, Solubility Conc.), 42 µM (≈ 92 µg/mL); in the data set “physchem” (pH 6.6, Solubility Conc.) it was 62 µM (≈ 136 µg/mL); in the data set “physchem” (pH 6.9, Solubility Conc.), 87 µM (≈ 191 µg/mL); in “physchem” (pH 7.2, Solubility Conc.) it was 165 µM (≈ 361 µg/mL); in the data set “physchem” (pH 7.3, Solubility Conc.) it was 261 µM (≈ 572 µg/mL). Besides, the solubility came out at 355 µM (≈ 778 µg/mL) in the data set “physchem” (pH 7.4, Solubility Conc.); 420 µM (≈ 920 µg/mL) in the data set “physchem” (pH 7.8, Solubility Conc.); 360 µM (≈ 789 µg/mL) in the data set “physchem” (pH 8, Solubility Conc.). The Ki at human MC4 receptor came to 0.8 nM.
As for `CC(=O)N[C@H]1CC(=O)NCCCC[C@@H](C(=O)N2CCC[C@H]2C(=O)N2CCC[C@H]2C(=O)N[C@@H](CCCNC(=N)N)C(=O)N[C@@H](CC(=O)O)C(=O)N[C@@H](CCCCN(CC(=O)O)CC(=O)O)C(=O)N[C@@H](CCCCNC(=O)COCCOCCNC(=O)CCCCCCCCCCCCCCCc2nnn[nH]2)C(N)=O)NC(=O)[C@H](Cc2c[nH]c3ccccc23)NC(=O)[C@H](CCCNC(=N)N)NC(=O)[C@@H](Cc2ccccc2)NC(=O)[C@H](Cc2c[nH]cn2)NC1=O` [Example 35, Ac-c[Asp-His-D-Phe-Arg-Trp-Lys]-Pro-Pro-Arg-Asp-Lys(biscarboxymethyl)-Lys[(2-{2-[16-(tetrazol-5-yl)hexadecanoylamino]ethoxy}ethoxy)acetyl]-NH2] (Ac-DH[dF]RWKPPRD[Lys(CH2CO2H)2]K([AEEA-Palmitoyl(16-(5-tetrazolyl))])-NH2; lactam 1-6), the solubility in the data set “physchem” (pH 6.4, Solubility Conc.) was 24 µM (≈ 52.8 µg/mL); in “physchem” (pH 6.8, Solubility Conc.), 44 µM (≈ 96.8 µg/mL); in the data set “physchem” (pH 7.2, Solubility Conc.) it was 126 µM (≈ 277 µg/mL); in the data set “physchem” (pH 7.3, Solubility Conc.) it was 211 µM (≈ 464 µg/mL); in the data set “physchem” (pH 7.4, Solubility Conc.), 425 µM (≈ 935 µg/mL); in the data set “physchem” (pH 7.5, Solubility Conc.), 526 µM (≈ 1160 µg/mL). For the same compound, the solubility in “physchem” (pH 7.7, Solubility Conc.) is 537 µM (≈ 1180 µg/mL); in the data set “physchem” (pH 7.9, Solubility Conc.), 572 µM (≈ 1260 µg/mL). This compound also registered a Ki on human MC4 receptor of 13 nM.
For `CC(=O)N[C@H]1CCC(=O)NCCC[C@@H](C(=O)N2CCC[C@H]2C(=O)N2CCC[C@H]2C(=O)N[C@@H](CCCNC(=N)N)C(=O)N[C@@H](CC(=O)O)C(=O)N[C@@H](CCCCN(CC(=O)O)CC(=O)O)C(=O)N[C@@H](CCCCNC(=O)COCCOCCNC(=O)CCCCCCCCCCCCCCCCC(=O)O)C(N)=O)NC(=O)[C@H](Cc2c[nH]c3ccccc23)NC(=O)[C@H](CCCNC(=N)N)NC(=O)[C@@H](Cc2ccccc2)NC(=O)[C@H](Cc2cnc[nH]2)NC1=O` [Example 38, Ac-c[Glu-His-D-Phe-Arg-Trp-Orn]-Pro-Pro-Arg-Asp-Lys(biscarboxymethyl)-Lys({2-[2-(17-carboxyheptadecanoylamino)ethoxy]ethoxy}acetyl)-NH2] (Ac-EH[dF]RW[Orn]PPRD[Lys(CH2CO2H)2]K([AEEA-C18 diacid])-NH2; lactam 1-6), the solubility in “physchem” (pH 5.4, Solubility Conc.) came out at 21 µM (≈ 46 µg/mL); in “physchem” (pH 6.2, Solubility Conc.), 36 µM (≈ 78.9 µg/mL); in the data set “physchem” (pH 6.5, Solubility Conc.) it was 58 µM (≈ 127 µg/mL); in the data set “physchem” (pH 7, Solubility Conc.) it was 111 µM (≈ 243 µg/mL); in the data set “physchem” (pH 7.4, Solubility Conc.), 218 µM (≈ 478 µg/mL); in the data set “physchem” (pH 7.5, Solubility Conc.), 282 µM (≈ 618 µg/mL). For the same compound, the solubility in the data set “physchem” (pH 7.6, Solubility Conc.) is 360 µM (≈ 789 µg/mL); in “physchem” (pH 7.7, Solubility Conc.), 422 µM (≈ 924 µg/mL); in “physchem” (pH 7.9, Solubility Conc.), 430 µM (≈ 942 µg/mL). At human MC4 receptor, this compound returned a Ki of 0.9 nM.
